Experiments:
Flag-mUSP18 = target: T1, Flag-mUSP18 (Mus musculus, UniProt Q9WTV6); assay: Gel-based ABPP with Rho-mISG15ct-PA probe in HEK293T cells overexpressing Flag-mUSP18; assay type: cell-based, murine; conditions: live HEK293T cells, Flag-mUSP18, 4 h treatment
T1 construct: expressed in transfected cells; host or cells: HEK293T
T1 sequence (Q9WTV6 1-368): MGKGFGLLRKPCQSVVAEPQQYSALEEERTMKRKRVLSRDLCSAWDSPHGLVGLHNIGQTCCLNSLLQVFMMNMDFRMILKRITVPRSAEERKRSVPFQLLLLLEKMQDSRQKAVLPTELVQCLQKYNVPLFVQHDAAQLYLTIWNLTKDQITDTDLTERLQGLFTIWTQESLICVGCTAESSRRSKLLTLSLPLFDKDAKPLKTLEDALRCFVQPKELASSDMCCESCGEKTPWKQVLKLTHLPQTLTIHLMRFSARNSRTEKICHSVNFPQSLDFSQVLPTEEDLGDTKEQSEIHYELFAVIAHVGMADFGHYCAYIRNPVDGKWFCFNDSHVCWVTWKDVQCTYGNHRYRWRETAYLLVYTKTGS
Experimental: To assess the cellular target engagement and cell permeability of these inhibitors, we performed activity‐based protein profiling. […] Following washing and cell lysis, cell extracts were incubated with a Rhodamine‐tagged murine ISG15 C‐terminal domain propargylamide activity‐based probe (Rho‐mISG15ct‐PA), which covalently labels the active site cysteine of active deISGylating enzymes.^[ [41] ^] The labelled enzymes were resolved by SDS‐PAGE and imaged by in‐gel fluorescence, where inhibition of USP18 is reflected by disappearance of the USP18‐probe‐labelled bands around 55 kDa (Figures 6a, S11A). All three inhibitors engaged with cellular mUSP18 in a dose‐dependent manner, with BB07CA902 and BB07CA28 showing efficient inhibition already at 1 µM concentration. […] The in‐cell selectivity of these inhibitors for USP18 over DUBs was confirmed in a similar ABPP experiment using a Rhodamine‐tagged ubiquitin propargylamide probe (Rho‐Ub‐PA),^[ [42] ^] which labels the active site cysteine of all active cysteine DUBs.
Figure 6 Inhibition of murine USP18 activity in living cells. a) Gel‐based ABPP potency assessment using a Rho‐mISG15ct‐PA probe in HEK293T cells overexpressing Flag‐mUSP18. At 24 h following transfection, cells were incubated with DMSO or increasing concentrations of indicated inhibitors for 4 h, lysed, and treated with Rho‐mISG15ct‐PA probe. Top panel: fluorescence scan. Middle panel: anti‐Flag western blot. Bottom panel: anti‐GAPDH western blot confirms equal loading. b) Accumulation of ISGylation in mouse IFN‐β‐stimulated EL4 cells. At 24 h following mouse IFN‐β treatment, cells were incubated with DMSO or increasing concentrations of indicated inhibitors for 4 h, lysed, and treated with Rho‐mISG15ct‐PA probe. […] Middle panel: fluorescence scan. […]
Samples were then diluted 3-fold with water and analyzed by mass spectrometry by injecting 2 μL into a Waters XEVO-G2 XS Q-TOF mass spectrometer equipped with an electrospray ion source in positive mode (capillary voltage 1.2 kV, desolvation gas flow 900 L/h, T = 60 °C) with a resolution of R = 26,000. […]

[1] = test system: cellular ISGylation in EL4 cells; assay: ISGylation accumulation in mouse IFN-β-stimulated EL4 cells (anti-mISG15 western blot); assay type: cell-based; conditions: 4 h treatment, anti-mISG15 blot
Experimental: Figure 6 Inhibition of murine USP18 activity in living cells. a) Gel‐based ABPP potency assessment using a Rho‐mISG15ct‐PA probe in HEK293T cells overexpressing Flag‐mUSP18. At 24 h following transfection, cells were incubated with DMSO or increasing concentrations of indicated inhibitors for 4 h, lysed, and treated with Rho‐mISG15ct‐PA probe. Top panel: fluorescence scan. Middle panel: anti‐Flag western blot. Bottom panel: anti‐GAPDH western blot confirms equal loading. b) Accumulation of ISGylation in mouse IFN‐β‐stimulated EL4 cells. At 24 h following mouse IFN‐β treatment, cells were incubated with DMSO or increasing concentrations of indicated inhibitors for 4 h, lysed, and treated with Rho‐mISG15ct‐PA probe. Top panel: anti‐mISG15 western blot. Middle panel: fluorescence scan. Bottom panel: anti‐β‐actin western blot confirms equal loading.
Ultimately, we were interested in whether USP18 inhibitor treatment could result in a relevant phenotype in cells. USP18 is the major deISGylase to remove ISG15 from target proteins, and genetic inactivation of USP18 isopeptidase activity leads to enhanced ISGylation in vivo and in cells.^[ [26] ^] We therefore examined whether the USP18 inhibitors enhance cellular ISGylation. Accordingly, EL4 cells were stimulated with IFN‐β to induce the ISG15 machinery, prior to treatment with the inhibitors. After cell lysis and SDS‐PAGE, ISGylated proteins were stained by immunoblotting with an ISG15 antibody (Figure 6b, top panel). […] To confirm inhibition of endogenous USP18 in these experiments, samples were post‐lysis treated with Rho‐mISG15ct‐PA probe.
Generation of ISGylation and in-cell inhibition assay
Mouse EL4 cells were stimulated with 300 U/mL mouse IFN-β. At 24 hours following stimulation, cells were incubated with indicated compounds at the indicated final concentrations at 37 °C for 4 hours, then washed twice with PBS and harvested for further […]
Activity-based probe labelling
The in-cell inhibition of DUBs and mUSP18 was assessed using activity-based probe labelling assays. In brief, cell pellets were resuspended in HR buffer (50 mM Tris-HCl, 5 mM MgCl 2, 250 mM sucrose, 2 mM TCEP and a Protease inhibitor tablet (Roche), pH 7.4), and lysed by sonication (Bioruptor, Diagenode, high intensity for 10 minutes with an ON/OFF cycle of 30 seconds) at 4°C. 40 μg clarified cell lysate was incubated with Rhodamine-mISG15ct-propargylamide probe[1] (final concentration 1 μM) or Rhodamine-Ubiquitin-propargylamide probe[13] (final concentration 1 μM) at 37 °C for 30 min. Reactions were stopped by the addition of LDS (lithium dodecyl sulfate) sample buffer (Invitrogen Life Technologies, Carlsbad, CA, USA) containing 2.5% β-mercaptoethanol, followed by boiling for 7 minutes.
SDS-PAGE, in-gel fluorescence scanning, and immunoblotting
Samples were resolved on precast Bis-Tris NuPAGE Gels (Invitrogen, including 4-12%, and 10% for different samples) using MOPS buffer (Invitrogen Life Technologies, Carlsbad, CA, USA). For fluorescence scan, labeled enzymes were visualized by in-gel fluorescence using a Typhoon FLA 9500 imaging system (GE Healthcare Life Sciences) (Rhodamine channel for probe, Cy5 channel for protein marker).
For immunoblotting, proteins were transferred to a nitrocellulose membrane (Protan BA85, 0.45 μm, GE Healthcare) at 300 mA for 3 hours. […]

mUSP18 [2] = target: T2, mUSP18 (Mus musculus, UniProt Q9WTV6); assay: IC50 determination, fluorogenic ISG15CT-Rho-morpholine activity assay; assay type: biochemical, murine; conditions: pure (re-synthesized) compound; mean ± SD n = 3
T2 construct: (46-368); His-tag (N); made in house
T2 sequence (Q9WTV6 46-368): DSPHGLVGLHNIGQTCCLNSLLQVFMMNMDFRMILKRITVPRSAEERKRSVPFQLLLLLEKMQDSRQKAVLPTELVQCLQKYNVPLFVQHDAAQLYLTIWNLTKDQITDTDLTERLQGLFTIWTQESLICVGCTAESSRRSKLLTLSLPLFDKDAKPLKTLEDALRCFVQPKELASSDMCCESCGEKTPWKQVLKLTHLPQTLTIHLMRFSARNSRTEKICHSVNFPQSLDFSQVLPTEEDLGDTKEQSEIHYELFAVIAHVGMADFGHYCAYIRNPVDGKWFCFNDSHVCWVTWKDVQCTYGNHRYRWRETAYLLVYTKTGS

mUSP18 [3] = target: T2, mUSP18; assay: High-throughput screening, ISG15ct-RhoMP, single dose 1.25 µM; assay type: biochemical, murine; conditions: crude in-plate synthesized compound, 1.25 µM assuming full conversion; read-out: %inhibition mUSP18
12 Ub(‐like) proteases = assay: High-throughput screening, whole panel of twelve enzymes; assay type: biochemical; conditions: crude mixture, 1.25 µM; enzymes other than mUSP18
Experimental: Since the in‐plate synthesis was conducted in 1536‐well Echo plates, the compounds could readily be transferred from these plates into 1536‐well assay plates using acoustic liquid dispensing (Figure 2a) and subjected to HTS. We screened the whole 7536 compound library against a panel of twelve enzymes, including three DUBs from the UCH family, two DUBs from the OTU family, five DUBs from the USP family, plus ISG15 protease USP18, and SUMO protease SENP1. Each compound was tested at a single dose of 1.25 µM, assuming full conversion (10 mM in DMSO of the formed products) during the in‐plate synthesis, using the fluorogenic assay described above. […] The compounds are sorted by the amine building blocks (BB1‐16), and within each BB, sorted by carboxylic acid (CA1‐471), thereby providing a comprehensive and systematic overview of the overall inhibition by each BB and CA combination. Some interesting patterns can be obtained from this map. […] Indeed, BB10 is the privileged scaffold for UCHL1 as it originates from UCHL1 inhibitor 5 (Figure 1). […]
The percentage inhibition was calculated for each well using the […]
Where FIx is the fluorescence intensity of each well, FIpos is the average fluorescence intensity of the positive (NEM) control wells, and FIneg is the average fluorescence intensity of the negative (DMSO) control wells.

Cc1cc(C(=O)N[C@@H]2C[C@@H]3CN(C#N)C[C@@H]3C2)ccc1C(C)C [BB06CA902]
concentration at which inhibition of mUSP18 probe labelling is observed (Flag-mUSP18): 100 µM | effect on cellular ISGylation [1]: hardly affected ISGylation

N#CN1C[C@H]2C[C@H](NC(=O)CCC3CCCCC3)C[C@H]2C1 [BB07CA48]
IC50 (mUSP18 [2]): 240 ± 9.9 nM | inhibition at 1.25 µM (mUSP18 [3]): 75% | inhibition of all other enzymes tested (12 Ub(‐like) proteases): negligible inhibition
